The values below come from patent US4912199A, “Oligopeptide anticancer and antiviral agents” (The Governors of the University of Alberta, priority 1987, dated 1990).

The structures appear in SMILES notation. Converted amounts (≈) assume the structure as drawn. Like-named read-outs stand apart in the source and are kept apart here.

In one data set the test system is P388 murine leukemia. The data set is described as follows: Antileukemic properties, ID50 vs P388 leukemia. Format: cell-based. Particulars: 25,000 cells per well; 72 hours incubation at 37° C. As for the experimental part:
The compounds of the following Table 3 were prepared in accordance with processes of this invention.

The next data set has as its system Herpes-2. The data set is described as follows: Antiviral test, minimum inhibitory concentration in primary rabbit kidney cell cultures. The following applies: 50% kill of the viruses in primary rabbit kidney cell cultures. It counts as cell-based.
The next data set concerns Herpes simplex-1. Described as above. It counts as cell-based. Particulars: 50% kill of the viruses in primary rabbit kidney cell cultures.
The subject of another data set is Vaccinia. Format: cell-based, vaccinia virus. Particulars: for minimum inhibitory concentration against vaccinia virus: text of Examples 3(A) and 3(B), hydrochloride.
Data set [1] concerns primary rabbit kidney cell cultures. The data set is described as follows: Minimal cytotoxic concentration in the antiviral test. The method, then: The antiviral properties of the compounds listed in Table 1 were tested to determine the minimum inhibitory concentration to achieve a 50% kill of the viruses in primary rabbit kidney cell cultures.
Another data set deals with L1210 murine Leukemia. The data set is described as follows: Anticancer properties, 50% cell kill (ID50). Format: cell-based.
The subject of data set [2] is FM3A murine mammary tumor. The data set is described as follows: Anticancer properties, 50% cell kill (ID50). Format: cell-based.
In a further data set the test system is RAJI human B lymphoblast. The data set is described as follows: Anticancer properties, 50% cell kill (ID50). Format: cell-based. The source says: RAJI human B lymphoblast
FIG. 1 relates to such acitivity for the cell line MOLT/4F, human T lymphoblast. FIG. 2 related to the tumor cell lines of Raji, human B lymphoblast; all values being expressed in ID50 values in arbitrary units. […] The general formula for the compounds of this invention as tested in FIGS. 1 and 2 are of formula I, wherein A is represented by: [drawing 14] m is 1; n is 1 and Het is pyrrole, R is represented by the formula COk --(CH2)l --CO where l is equal to 0, 1, 2, 3, 4, 5, 6, 7 or 8 and k is equal to 0 or 1.

Data set [3] relates to MOLT/4F human T lymphoblast. The data set is described as follows: Anticancer properties, 50% cell kill (ID50). Format: cell-based.
[4] abbreviates: 50% kill of the viruses in primary rabbit kidney cell cultures.

For the molecule `Cl.Cl.Cn1cc(NC(=O)c2cc(NC(=O)CCCC(=O)Nc3cc(C(=O)Nc4cc(C(=O)NCCC(=N)N)n(C)c4)n(C)c3)cn2C)cc1C(=O)NCCC(=N)N` [m=1 n=1 l=3 k=1], the “ID50 vs P388 leukemia” value with P388 murine leukemia was 6.4 µg/mL.

On to `Cl.Cl.Cn1cc(NC(=O)c2cc(NC(=O)CCCCCC(=O)Nc3cc(C(=O)Nc4cc(C(=O)NCCC(=N)N)n(C)c4)n(C)c3)cn2C)cc1C(=O)NCCC(=N)N` [m=1 n=1 l=5 k=1], for which, in the data set on P388 murine leukemia, the “ID50 vs P388 leukemia” value is 4.4 µg/mL.

`Cl.Cl.Cn1cc(NC(=O)c2cc(NC(=O)CCCCCCCC(=O)Nc3cc(C(=O)Nc4cc(C(=O)NCCC(=N)N)n(C)c4)n(C)c3)cn2C)cc1C(=O)NCCC(=N)N` [m=1 n=1 R = CO(CH2)7 CO]: the “Minimum Inhibitory Conc. Herpes-2” value with Herpes-2 was 40 µg/mL. In the data set on Herpes simplex-1, the “Minimum Inhibitory Conc. Herpes simplex-1” value stood at 40 µg/mL. In addition, in the data set on Vaccinia (setting [4]), the “Minimum Inhibitory Conc. Vaccinia” value turned out to be 0.2 µg/mL. The “ID50 vs P388 leukemia” value with P388 murine leukemia is 0.75 µg/mL. Besides, the “Minimal Cytotoxic Conc.” value in data set [1] is given as at least 100 μg/m.

`Cl.Cl.Cn1cc(NC(=O)c2cc(NC(=O)Nc3cc(C(=O)Nc4cc(C(=O)NCCC(=N)N)n(C)c4)n(C)c3)cn2C)cc1C(=O)NCCC(=N)N` [m=1 n=1 l=0 k=0]: the “ID50 vs P388 leukemia” value with P388 murine leukemia was 8.0 µg/mL.

Take `Cl.Cl.Cn1cc(NC(=O)c2cc(NC(=O)CCCCC(=O)Nc3cc(C(=O)Nc4cc(C(=O)NCCC(=N)N)n(C)c4)n(C)c3)cn2C)cc1C(=O)NCCC(=N)N` [m=1 n=1 l=4 k=1]: the “ID50 vs P388 leukemia” value in the data set with P388 murine leukemia amounted to 1.05 µg/mL.

In the case of `Cl.Cl.Cn1cc(NC(=O)c2cc(NC(=O)CCCCCCC(=O)Nc3cc(C(=O)Nc4cc(C(=O)NCCC(=N)N)n(C)c4)n(C)c3)cn2C)cc1C(=O)NCCC(=N)N` [m=1 n=1 R = CO(CH2)6 CO], the “Minimum Inhibitory Conc. Herpes-2” value in the data set with Herpes-2 turned out to be 10 µg/mL. The “Minimum Inhibitory Conc. Herpes simplex-1” value in the data set on Herpes simplex-1 was found to be 10 µg/mL. The “Minimum Inhibitory Conc. Vaccinia” value in the data set on Vaccinia (setting [4]) came to 0.2 µg/mL. For the same molecule, in the data set with P388 murine leukemia, the “ID50 vs P388 leukemia” value amounted to 0.70 µg/mL. Further, the “Minimal Cytotoxic Conc.” value in [1] is recorded as at least 10 μg/m.

On to `Cl.Cn1cc(NC(=O)c2cc(NC(=O)C[N+](C)(C)C)cn2C)cc1C(=O)NCCC(=N)N.[Cl-]` [Example 3(A), 1-Methyl-4-(1-methyl-4-trimethylammonium-acetamidopyrrole-2-carboxamido)pyrrole-2-carboxamidopropionamidine chloride hydrochloride], for which the “minimum inhibitory concentration against vaccinia virus” value in the data set on Vaccinia is 20 µg/mL.

For `Cl.Cl.Cn1cc(NC(=O)c2cc(NC(=O)/C=C/C(=O)Nc3cc(C(=O)Nc4cc(C(=O)NCCC(=N)N)n(C)c4)n(C)c3)cn2C)cc1C(=O)NCCC(=N)N` [m=1 n=1 R = COCH CHCO (trans)], the “Minimum Inhibitory Conc. Herpes-2” value in the data set on Herpes-2 came out at 10 µg/mL. In the data set on Vaccinia (setting [4]), the “Minimum Inhibitory Conc. Vaccinia” value was 2 µg/mL. In addition, the “Minimal Cytotoxic Conc.” value in data set [1] was at least 40 μg/m.

On to `Cl.Cn1cc(NC(=O)c2cc(NC(=O)C[N+](C)(C)C)cn2C)cc1C(=O)NCCC(=N)N.[Cl-]` [3(B), 1-Methyl-4-(1-methyl-4-trimethylammonium-acetamidopyrrole-2-carboxamido)pyrrole-2-carboxamidopropionamidine chloride hydrochloride], for which the “minimum inhibitory concentration against vaccinia virus” value in the data set with Vaccinia was determined as 300 µg/mL.

On to `Cn1cc(NC(=O)c2cc(NC(=O)c3cc(NC=O)cn3C)cn2C)cc1C(=O)NCCC(=N)N` [Distamycin, distamycin, reference compound], for which, in the data set on L1210 murine Leukemia, the “Minimum Inhibitory Conc. L1210 (ID50)” value is 27.1 ± 4.7 µg/mL. For the same molecule, the “Minimum Inhibitory Conc. FM3A (ID50)” value in data set [2] worked out at 30.6 ± 2.4 µg/mL. The “Minimum Inhibitory Conc. RAJI (ID50)” value in the data set with RAJI human B lymphoblast was 23.7 ± 3.69 µg/mL. Moreover, the “Minimum Inhibitory Conc. Herpes-2” value with Herpes-2 was 70 µg/mL. In the data set on Herpes simplex-1, the “Minimum Inhibitory Conc. Herpes simplex-1” value stood at 70 µg/mL. Moreover, the Minimum Inhibitory Conc. Vaccinia in the data set on Vaccinia came out at 0.2 µg/mL. Also, in the data set with P388 murine leukemia, the “ID50 vs P388 leukemia” value was found to be 20 µg/mL (≈ 41.5 µM). In data set [1] (primary rabbit kidney cell cultures), the “Minimal Cytotoxic Conc.” value turned out to be 200 μg/m.

Turning to `Cl.Cl.Cn1cc(NC(=O)c2cc(NC(=O)c3cc(NC(=O)CCC(=O)Nc4cc(C(=O)Nc5cc(C(=O)Nc6cc(C(=O)NCCC(=N)N)n(C)c6)n(C)c5)n(C)c4)cn3C)cn2C)cc1C(=O)NCCC(=N)N` [m=1 n=2 R = CO(CH2)2 CO], the “Minimum Inhibitory Conc. L1210 (ID50)” value with L1210 murine Leukemia was above 100 µg/mL. For the same molecule, the “Minimum Inhibitory Conc. FM3A (ID50)” value in data set [2] turned out to be 4.29 ± 1.12 µg/mL. Moreover, in the data set on RAJI human B lymphoblast, the “Minimum Inhibitory Conc. RAJI (ID50)” value amounted to 4.14 ± 8.4 µg/mL. For the same molecule, the “Minimum Inhibitory Conc. Herpes-2” value in the data set with Herpes-2 stood at 4 µg/mL. Further, in the data set on Herpes simplex-1, the “Minimum Inhibitory Conc. Herpes simplex-1” value came to 4 µg/mL. In data set [3], the “Minimum Inhibitory Conc. MOLT/4F (ID50)” value is 100 µg/mL. For the same molecule, the “Minimum Inhibitory Conc. Vaccinia” value in the data set with Vaccinia (setting [4]) was found to be 4 µg/mL. Also, the “Minimal Cytotoxic Conc.” value in data set [1] is listed as at least 40 μg/m.

Turning to `Cl.Cl.Cn1cc(NC(=O)c2cc(NC(=O)CCCCCCCCC(=O)Nc3cc(C(=O)Nc4cc(C(=O)NCCC(=N)N)n(C)c4)n(C)c3)cn2C)cc1C(=O)NCCC(=N)N` [m=1 n=1 R = CO[CH2]8CO], the “Minimum Inhibitory Conc. L1210 (ID50)” value with L1210 murine Leukemia worked out at 4.21 ± 1.52 µg/mL. Further, the “Minimum Inhibitory Conc. FM3A (ID50)” value in [2] is 22.1 ± 11.1 µg/mL. In addition, the “Minimum Inhibitory Conc. RAJI (ID50)” value in the data set on RAJI human B lymphoblast worked out at 3.34 ± 0.44 µg/mL. In data set [3], the “Minimum Inhibitory Conc. MOLT/4F (ID50)” value is 2.97 ± 0.4 µg/mL. The “ID50 vs P388 leukemia” value in the data set on P388 murine leukemia worked out at 0.98 µg/mL.

Take `Cl.Cl.Cn1cc(NC(=O)c2cc(NC(=O)CC(=O)Nc3cc(C(=O)Nc4cc(C(=O)NCCC(=N)N)n(C)c4)n(C)c3)cn2C)cc1C(=O)NCCC(=N)N` [m=1 n=1 R = COCH2CO]: the “Minimum Inhibitory Conc. L1210 (ID50)” value in the data set with L1210 murine Leukemia is 28.5 ± 9.7 µg/mL. Besides, the “Minimum Inhibitory Conc. FM3A (ID50)” value in [2] came out at 5.87 ± 2.23 µg/mL. In addition, in the data set with RAJI human B lymphoblast, the “Minimum Inhibitory Conc. RAJI (ID50)” value was found to be 3.39 ± 0.69 µg/mL. Further, the “Minimum Inhibitory Conc. MOLT/4F (ID50)” value in [3] stood at 2.85 ± 0.6 µg/mL. The “ID50 vs P388 leukemia” value in the data set with P388 murine leukemia came to 0.91 µg/mL.
